Assay results taken from patent publication US8648113B2, “Mixture and compounds from mycelia of Antrodia camphorata and use thereof” (Simpson Biotech Co., Ltd., priority 2004, dated 2014).
Several values for one entry are separate records, joined by “and”; a condition that tells them apart may be missing. Equal values may be shown once. Read-outs that look alike come from different tables or passages of the source.

Experiments:
[1] = tested on: LLC (Lewis lung carcinoma) cell line; experiment: Cytotoxic assay, in vitro LLC tumor cell assay (SRB method); details: for 50% Growth Inhibition (ED50): SRB method
[2] = tested on: LLC (Lewis lung carcinoma) cell line
[3] = tested on: spontaneously hypertensive rats (SHR); details: 0.1 mg/kg PO, Ave. of 3 rats (Tables 7 and 9: two experiments)
Method: Blood pressure and heart rate were recorded indirectly by tail cuff method in a temperature controlled environment (32±1° C.) before (0 time) and 1, 2 and 4 hours after oral administration of test substance or vehicle. A reduction in systolic pressure by 10 percent or more (>10%), or decrease in heart rate by 20 percent or more (≧20%), at each measured time interval relative to 0 time, is considered significant.
Blood pressure was recorded indirectly vial tail cuff at 0 time (before) and 1, 2 and 4 hours after oral administration of vehicle or test substance. A reduction in blood pressure by 10 percent or more (10%), or decrease in heart rate by 20 percent or more (≧20%) at each measurement time point relative to 0 time, shown in parenthesis, is considered significant.
EL4: mice lymphoma = experiment: Tumor assay of ACM, cell count method, EL4; type: cell-based; details: 5 days
Excerpt: (§1) Tumor Assay of ACM (Antrodia camphorata Mycelia Powder) A. Cell Line • Adherent Cell • MCF-7: human breast carcinoma • HT-29: human colon adenocarcinoma • KATO III: human stomach carcinoma • SW480: human colon adenocarcinoma • SW620: human colon adenocarcinoma • HepG2: human liver carcinoma • Suspension Cell • EL4: mice lymphoma B. Samples • Compound 1, Compound 3, ACM EtOH Extract, ACM H2O Extract C. Assay Method • Calculate ED50 (50% inhibition of effective dose) • Adherent cell: MTT (methyl thiazolyl tetrazolium) method for MCF-7, HT-29, KATO III, SW480, HepG2, cells are determined at 3 days. SW620 at 4 days • Suspension cell: Cell count method; EL4 cells count at 5 days D. Result Calculation: y=m Ln(x)+b
(§2) Use value of X (10, 30, 50 ppm) and Y to get correlation curve y=−0.2643 Ln(x)+1.5321 ED50=exp[0.97/2−1.5321/(−0.2643)] Sample Preparation and Sample Description A. ACM (Antrodia Camphorata Mycelia Powder) H2O Extract 1. Add 1 g of ACM into 40 ml of RO H2O in a 250 ml beaker, put the beaker in ultrasonic water bath for 20 min at room temperature 2. Stir at 45° C. water bath for 45 min 3. Place the beaker in ultrasonic water bath for another 20 min 4. Centrifuge the sample at 3000 rpm for 15 min 5. Collect supernatant and perform serial dilutions with media B. Determination of Sample Concentration 1. […] Read at OD545 on Elisa reader Cell Count Method (EL4 Cell Line) 1. […]

[4] = tested on: HepG2: human liver carcinoma; experiment: Tumor assay of ACM, MTT method, HepG2; type: cell-based; details: 3 days
Excerpt: as §1, §2

[5] = tested on: KATO III: human stomach carcinoma; experiment: Tumor assay of ACM, MTT method, KATO III; type: cell-based; details: 3 days
Excerpt: as §1, §2

[6] = tested on: HT-29: human colon adenocarcinoma; experiment: Tumor assay of ACM, MTT method, HT-29; type: cell-based; details: 3 days
Excerpt: as §1, §2

[7] = tested on: SW620: human colon adenocarcinoma; experiment: Tumor assay of ACM, MTT method, SW620; type: cell-based; details: 4 days
Excerpt: as §1, §2

[8] = tested on: MCF-7: human breast carcinoma; experiment: Tumor assay of ACM, MTT method, MCF-7; type: cell-based; details: 3 days
Excerpt: as §1, §2

[9] = tested on: ICR derived male mice, carbon tetrachloride induced hepatic injury; experiment: Hepatic Injury, Carbon Tetrachloride, in Mice; type: in vivo, mouse; details: for ALT, group mean (X) / AST, group mean (X) / ALT, individual animal / AST, individual animal: CCl4-challenged ICR mice; for ALT, group mean (X) / AST, group mean (X): mean of 5; for ALT, individual animal / AST, individual animal: single animals N 1-5, 24 h after CCl4; for ALT Dec. % / AST Dec. %: decrease relative to vehicle group, brackets = 30% or greater
Method: Nine groups of ICR derived male mice (weighing 22±2 g) of 5 each were used. Each animals was challenged with a single dose of carbon tetrachloride (CCl4, 0.1 ml/kg in 50% olive oil, PO). […] The animals were sacrificed 24 hours after CCl4. Alanine aminotransferase (ALT) and Aspartate aminotransferase (AST) levels were measured by optimized UV method using a HITACHI automatic analyzer (model 7050). A reduction of ALT or AST levels by 30 percent or greater (30%), relative to the vehicle group, indicating significant protection from hepatic injury.
The test substance of ACM at doses 300 and 1000 mg/kg and compound 3 of the invention at doses 30, 100 and 300 mg/kg were administered orally to test animals 0.5 hour before and 4, 8 hours after CCl4 challenge. […] The degree of hepatic injury was determined by increase in serum alanine aminotransferase (ALT) and aspartate aminotransferase (AST) levels relative to the vehicle treated animals. ACM at 1000 mg/kg×3 and compound 3 of the invention at 300 mg/kg×3 caused a significant reduction of ALT (46% and 41%) and AST (36% and 33%) relative to the vehicle treated animals.

[10] = tested on: SW480: human colon adenocarcinoma; experiment: Tumor assay of ACM, MTT method, SW480; type: cell-based; details: 3 days
Excerpt: as §1, §2

Structure (SMILES): CC(C)=CCOc1ccc([C@H]2C(=O)N(O)C(=O)[C@@H]2CC(C)C)cc1 (relative stereo) [Compound 4, 3R*,4S*-1-Hydroxy-3-isobutyl-4-[4-(3-methyl-2-butenyloxy)phenyl]pyrrolidine-2,5-dione]
- 50% Growth Inhibition (ED50) [1]: >10 µg/mL
- cytotoxic activity (in words) [2]: no cytotoxic activity

Structure (SMILES): Clc1cccc(Cl)c1N=C1NCCN1 [Clonidine]
- Heart Rate % Control (from 0 times), 2 Hours [3]: 90% and 86%
- Heart Rate % Control (from 0 times), 4 Hours [3]: 98% and 102%

Structure (SMILES): CC(C)=CCOc1ccc(C2=C(CC(C)C)C(=O)OC2=O)cc1 [Compound 1, 3-Isobutyl-4-[4-(3-methyl-2-butenyloxy)phenyl]furan-2,5-dione]
- ED50 (EL4: mice lymphoma): 3.5 ppm
- cytotoxic activity (in words) [1]: no cytotoxic activity
- 50% Growth Inhibition (ED50) [1]: >20 µg/mL
- ED50 [4]: 21 ppm
- ED50 [5]: 38 ppm
- ED50 [6]: 52 ppm
- ED50 [7]: 15 ppm
- ED50 [8]: 6 ppm

Structure (SMILES): CC(C)=CCOc1ccc(C2=C(CC(C)C)C(=O)N(O)C2=O)cc1 [Compound 3, 3-Isobutyl-4-[4-(3-methyl-2-butenyloxy)phenyl]-1H-pyrrol-1-ol-2,5-dione]
- reduction of ALT relative to the vehicle treated animals ([9]; CCl4 mice, 300 mg/kg×3 PO): 41%
- reduction of AST relative to the vehicle treated animals ([9]; CCl4 mice, 300 mg/kg×3 PO): 33%
- ALT, group mean (X) ([9]; PO 30 mg/kg × 3): 3360 U/L
- AST, group mean (X) ([9]; PO 30 mg/kg × 3): 1962 U/L
- ALT, individual animal ([9]; PO 30 mg/kg × 3): 4296 U/L and 3696 U/L and 2152 U/L and 2400 U/L and 4256 U/L
- AST, individual animal ([9]; PO 30 mg/kg × 3): 2136 U/L and 2288 U/L and 1096 U/L and 1792 U/L and 2496 U/L
- ALT Dec. % ([9]; PO 30 mg/kg × 3): −1%
- AST Dec. % ([9]; PO 30 mg/kg × 3): −16%
- ALT, group mean (X) ([9]; PO 100 mg/kg × 3): 3342 U/L
- AST, group mean (X) ([9]; PO 100 mg/kg × 3): 1984 U/L
- ALT, individual animal ([9]; PO 100 mg/kg × 3): 3200 U/L and 4576 U/L and 2512 U/L and 2728 U/L and 3696 U/L
- AST, individual animal ([9]; PO 100 mg/kg × 3): 2256 U/L and 2976 U/L and 1536 U/L and 1552 U/L and 1600 U/L
- ALT Dec. % ([9]; PO 100 mg/kg × 3): 0%
- AST Dec. % ([9]; PO 100 mg/kg × 3): −17%
- ALT, group mean (X) ([9]; PO 300 mg/kg × 3): 1966 U/L
- AST, group mean (X) ([9]; PO 300 mg/kg × 3): 1130 U/L
- ALT, individual animal ([9]; PO 300 mg/kg × 3): 1368 U/L and 1576 U/L and 1440 U/L and 2728 U/L and 2720 U/L
- AST, individual animal ([9]; PO 300 mg/kg × 3): 776 U/L and 896 U/L (2×) and 1352 U/L and 1728 U/L
- ALT Dec. % ([9]; PO 300 mg/kg × 3): (41) %
- AST Dec. % ([9]; PO 300 mg/kg × 3): (33) %
- ED50 [10]: 20 ppm
- ED50 (EL4: mice lymphoma): 2.6 ppm
- cytotoxic activity (in words) [1]: cytotoxic
- 50% Growth Inhibition (ED50) [1]: 7.5 µg/mL
- ED50 [4]: 35 ppm
- ED50 [5]: 69 ppm
- ED50 [6]: 42 ppm
- ED50 [7]: 27 ppm
- ED50 [8]: 0.02 ppm
